Where two headings read alike, the source gives them in different places. Each block holds one molecule with its values, some of them ahead of it.
Legend:
B-Raf^V600E [1] = target: T1, B-Raf^V600E (Homo sapiens, UniProt P15056, V600E); experiment: B-Raf^V600E kinase inhibition (literature data set); format: biochemical; details: −log IC50 of literature IC50; read-out: B-Raf Actual pIC50 (converted)
Procedure: The IC50 values of all compounds for B-Raf and KDR inhibition were converted to the −log IC50 (pIC50) as dependent variables in the 3D-QSAR analysis. The 3D structures for all 40 compounds were built and minimized, and then Gasteiger-Hückel charge was calculated. All works were all done in SYBYL 6.9 (Tripos, Inc.: St. Louis, MO, USA, 2002).

B-Raf^V600E [2] = target: T1, B-Raf^V600E; parameters: method as in PMID 22376051, PMID 22763369, PMID 22883026, PMID 23906342; details: literature values used as 3D-QSAR data set; read-out: Kinase IC50 B-Raf^V600E; cited from earlier work
VEGFR2 [3] = target: T2, VEGFR2 (Homo sapiens, UniProt P35968); parameters: method as in PMID 22376051, PMID 22763369, PMID 22883026, PMID 23906342; details: literature values used as 3D-QSAR data set; read-out: Kinase IC50 VEGFR2; cited from earlier work
VEGFR2 [4] = target: T2, VEGFR2; experiment: VEGFR2 (KDR) kinase inhibition (literature data set); format: biochemical
Procedure: The IC50 values of all compounds for B-Raf and KDR inhibition were converted to the −log IC50 (pIC50) as dependent variables in the 3D-QSAR analysis. The 3D structures for all 40 compounds were built and minimized, and then Gasteiger-Hückel charge was calculated.

T2 sequence (P35968 806-1171): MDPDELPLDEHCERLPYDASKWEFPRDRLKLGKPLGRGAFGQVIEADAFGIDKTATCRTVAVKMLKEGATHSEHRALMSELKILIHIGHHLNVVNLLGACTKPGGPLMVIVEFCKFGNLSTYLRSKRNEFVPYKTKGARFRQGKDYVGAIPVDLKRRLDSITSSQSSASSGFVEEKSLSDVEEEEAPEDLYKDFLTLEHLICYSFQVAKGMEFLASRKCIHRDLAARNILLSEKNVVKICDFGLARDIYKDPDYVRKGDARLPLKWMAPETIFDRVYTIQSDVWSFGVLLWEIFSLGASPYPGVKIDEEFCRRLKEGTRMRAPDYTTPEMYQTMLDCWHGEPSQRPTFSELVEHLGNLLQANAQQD
T1 sequence (P15056 whole entry V600E): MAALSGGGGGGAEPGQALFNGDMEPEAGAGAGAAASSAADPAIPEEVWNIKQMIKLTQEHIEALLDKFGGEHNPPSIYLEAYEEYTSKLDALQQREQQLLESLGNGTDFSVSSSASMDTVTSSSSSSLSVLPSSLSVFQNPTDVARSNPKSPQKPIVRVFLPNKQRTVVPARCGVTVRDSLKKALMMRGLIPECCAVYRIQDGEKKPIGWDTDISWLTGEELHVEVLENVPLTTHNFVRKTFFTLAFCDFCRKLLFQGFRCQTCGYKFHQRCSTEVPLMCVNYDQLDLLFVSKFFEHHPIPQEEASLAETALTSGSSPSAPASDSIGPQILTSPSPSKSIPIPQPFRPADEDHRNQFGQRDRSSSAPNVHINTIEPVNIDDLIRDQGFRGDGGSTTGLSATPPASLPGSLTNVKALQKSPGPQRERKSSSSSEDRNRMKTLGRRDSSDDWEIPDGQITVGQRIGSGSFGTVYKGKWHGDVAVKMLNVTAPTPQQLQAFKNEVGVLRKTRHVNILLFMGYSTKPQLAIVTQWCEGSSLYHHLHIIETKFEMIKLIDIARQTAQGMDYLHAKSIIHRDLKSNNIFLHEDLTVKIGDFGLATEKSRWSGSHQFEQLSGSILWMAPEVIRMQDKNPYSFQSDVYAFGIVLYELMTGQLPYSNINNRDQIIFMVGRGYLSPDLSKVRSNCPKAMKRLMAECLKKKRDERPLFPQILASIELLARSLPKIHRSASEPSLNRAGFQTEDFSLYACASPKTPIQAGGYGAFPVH

- IC50 (B-Raf^V600E [1]): 42.7 nM
Compound: O=C(Nc1cccc(Oc2ccc3nc(NC(=O)C4CCOCC4)cn3n2)c1)c1cccc(C(F)(F)F)c1 [Compound 1-1]
- IC50 (B-Raf^V600E [2]): 43 nM

Compound: CC(=O)Nc1cn2nc(Oc3cccc(NC(=O)c4cccc(C(F)(F)F)c4)c3)ccc2n1 [Compound 1-2]
- IC50 (B-Raf^V600E [1]): 4.07 nM
- IC50 (B-Raf^V600E [2]): 4.1 nM
- IC50 (VEGFR2 [3]): 1.1 nM
- IC50 (VEGFR2 [4]): 1.1 nM

Compound: CCC(=O)Nc1cn2nc(Oc3cccc(NC(=O)c4cccc(C(F)(F)F)c4)c3)ccc2n1 [Compound 1-3]
- IC50 (B-Raf^V600E [1]): 6.92 nM
- IC50 (B-Raf^V600E [2]): 6.9 nM
- IC50 (VEGFR2 [3]): 1.7 nM
- IC50 (VEGFR2 [4]): 1.7 nM

Compound: O=C(Nc1cccc(Oc2ccc3nc(NC(=O)C4CC4)cn3n2)c1)c1cccc(C(F)(F)F)c1 [Compound 1-4]
- IC50 (B-Raf^V600E [1]): 7.59 nM
- IC50 (B-Raf^V600E [2]): 7.6 nM
- IC50 (VEGFR2 [3]): 1.9 nM
- IC50 (VEGFR2 [4]): 1.91 nM

Compound: O=C(Nc1cccc(Oc2ccc3nc(NC(=O)C4CCC4)cn3n2)c1)c1cccc(C(F)(F)F)c1 [Compound 1-5]
- IC50 (B-Raf^V600E [1]): 28.2 nM
- IC50 (B-Raf^V600E [2]): 28 nM
- IC50 (VEGFR2 [3]): 4.8 nM
- IC50 (VEGFR2 [4]): 4.79 nM

Compound: O=C(Nc1cccc(Oc2ccc3nc(NC(=O)C4CCCC4)cn3n2)c1)c1cccc(C(F)(F)F)c1 [Compound 1-6]
- IC50 (B-Raf^V600E [1]): 43.7 nM
- IC50 (B-Raf^V600E [2]): 44 nM
- IC50 (VEGFR2 [3]): 9.3 nM
- IC50 (VEGFR2 [4]): 9.33 nM

Compound: O=C(Nc1cccc(Oc2ccc3nc(NC(=O)C4CC4)cn3n2)c1)c1ccc(C(F)(F)F)cc1 [Compound 1-7]
- IC50 (B-Raf^V600E [1]): 81.3 nM
- IC50 (B-Raf^V600E [2]): 81 nM
- IC50 (VEGFR2 [3]): 1.9 nM
- IC50 (VEGFR2 [4]): 1.91 nM

Compound: O=C(Nc1cccc(Oc2ccc3nc(NC(=O)C4CC4)cn3n2)c1)c1ccccc1C(F)(F)F [Compound 1-8]
- IC50 (B-Raf^V600E [1]): 3720 nM
- IC50 (B-Raf^V600E [2]): 3700 nM
- IC50 (VEGFR2 [3]): 1.4 nM
- IC50 (VEGFR2 [4]): 1.41 nM

Compound: COc1cccc(C(=O)Nc2cccc(Oc3ccc4nc(NC(=O)C5CC5)cn4n3)c2)c1 [Compound 1-9]
- IC50 (B-Raf^V600E [1]): 18.2 nM
- IC50 (B-Raf^V600E [2]): 18 nM
- IC50 (VEGFR2 [3]): 0.31 nM
- IC50 (VEGFR2 [4]): 0.309 nM

Compound: CC(C)(C)Oc1cccc(C(=O)Nc2cccc(Oc3ccc4nc(NC(=O)C5CC5)cn4n3)c2)c1 [Compound 1-10]
- IC50 (B-Raf^V600E [1]): 15.1 nM
- IC50 (B-Raf^V600E [2]): 15 nM
- IC50 (VEGFR2 [3]): 1.8 nM
- IC50 (VEGFR2 [4]): 1.82 nM

Compound: CC(C)(O)c1cccc(C(=O)Nc2cccc(Oc3ccc4nc(NC(=O)C5CC5)cn4n3)c2)c1 [Compound 1-11]
- IC50 (B-Raf^V600E [1]): 10 nM
- IC50 (VEGFR2 [3]): 0.82 nM
- IC50 (VEGFR2 [4]): 0.813 nM

Compound: CC(C)(C#N)c1cccc(C(=O)Nc2cccc(Oc3ccc4nc(NC(=O)C5CC5)cn4n3)c2)c1 [Compound 1-12]
- IC50 (B-Raf^V600E [1]): 14.1 nM
- IC50 (B-Raf^V600E [2]): 14 nM
- IC50 (VEGFR2 [3]): 1.5 nM
- IC50 (VEGFR2 [4]): 1.51 nM

Compound: CC(C)(C#N)c1cccc(C(=O)Nc2cccc(Oc3ccc4nc(NC(=O)C5CC5)cn4c3)c2)c1 [Compound 2-1]
- IC50 (B-Raf^V600E [1]): 49 nM
- IC50 (B-Raf^V600E [2]): 49 nM
- IC50 (VEGFR2 [3]): 1.8 nM
- IC50 (VEGFR2 [4]): 1.82 nM

Compound: CC(C)(C#N)c1cccc(C(=O)Nc2cccc(Oc3ccc4nc(NC(=O)C5CC5)[nH]c4c3)c2)c1 [Compound 2-2]
- IC50 (B-Raf^V600E [1]): 40.7 nM
- IC50 (B-Raf^V600E [2]): 41 nM
- IC50 (VEGFR2 [3]): 8.1 nM
- IC50 (VEGFR2 [4]): 8.13 nM

Compound: CC(C)(C#N)c1cccc(C(=O)Nc2cccc(Oc3ccc4nc(NC(=O)C5CC5)[nH]c4n3)c2)c1 [Compound 2-3]
- IC50 (B-Raf^V600E [1]): 17 nM
- IC50 (B-Raf^V600E [2]): 17 nM
- IC50 (VEGFR2 [3]): 3.1 nM
- IC50 (VEGFR2 [4]): 3.09 nM

Compound: Cn1c(NC(=O)C2CC2)nc2ccc(Oc3cccc(NC(=O)c4cccc(C(C)(C)C#N)c4)c3)nc21 [Compound 2-4]
- IC50 (B-Raf^V600E [1]): 200 nM
- IC50 (B-Raf^V600E [2]): 200 nM
- IC50 (VEGFR2 [3]): 2.4 nM
- IC50 (VEGFR2 [4]): 2.4 nM

Compound: CC(C)(C#N)c1cccc(C(=O)Nc2cccc(Oc3ccc4nc(NC(=O)C5CC5)sc4c3)c2)c1 [Compound 2-5]
- IC50 (B-Raf^V600E [1]): 25.1 nM
- IC50 (B-Raf^V600E [2]): 25 nM
- IC50 (VEGFR2 [3]): 14 nM
- IC50 (VEGFR2 [4]): 14.1 nM

Compound: N#CC1(c2cccc(C(=O)Nc3cccc(Oc4ccc5nc(NC(=O)C6CC6)sc5n4)c3)c2)CC1 [Compound 3-1]
- IC50 (B-Raf^V600E [1]): 3.02 nM
- IC50 (B-Raf^V600E [2]): 3 nM
- IC50 (VEGFR2 [3]): 2.2 nM
- IC50 (VEGFR2 [4]): 2.19 nM

Compound: N#CC1(c2cccc(C(=O)Nc3cccc(Oc4ccc5nc(NC(=O)C6CC6)sc5n4)c3)c2Cl)CC1 [Compound 3-2]
- IC50 (B-Raf^V600E [1]): 8.91 nM
- IC50 (B-Raf^V600E [2]): 9 nM
- IC50 (VEGFR2 [3]): 4 nM
- IC50 (VEGFR2 [4]): 3.98 nM

- IC50 (B-Raf^V600E [1]): 7.08 nM
- IC50 (VEGFR2 [4]; −log IC50 of literature IC50, read-out: KDR Actual pIC50 (converted)): 2.19 nM
Compound: N#CC1(c2cccc(C(=O)Nc3cc(Oc4ccc5nc(NC(=O)C6CC6)sc5n4)ccc3F)c2Cl)CC1 [Compound 3-3]

Compound: N#CC1(c2cccc(C(=O)Nc3cc(Oc4ccc5nc(NC(=O)C6CC6)sc5n4)ccc3Cl)c2Cl)CC1 [Compound 3-4]
- IC50 (B-Raf^V600E [1]): 42.7 nM
- IC50 (B-Raf^V600E [2]): 43 nM
- IC50 (VEGFR2 [3]): 7.5 nM
- IC50 (VEGFR2 [4]): 7.59 nM

Reference: PMC4632759, “Studies on [5,6]-Fused Bicyclic Scaffolds Derivatives as Potent Dual B-Raf^V600E/KDR Inhibitors Using Docking and 3D-QSAR Approaches” (International Journal of Molecular Sciences, 2015)
